Experimental data taken from ChEMBL document CHEMBL5727850, “Haloallylamine indole and azaindole derivative inhibitors of lysyl oxidases and uses thereof” (2020).

Assay: Inhibition Assay: LOX and LOXL2: Lysyl oxidase (LOX) is an extracellular copper dependent enzyme which oxidizes peptidyl lysine and hydroxylysine residues in collagen and lysine residues in elastin to produce peptidyl alpha-aminoadipic-delta-semialdehydes. […] There are five LOX family members; these are LOX, LOXL1, LOXL2, LOXL3 and LOXL4. LOX and LOXL family members can be acquired as recombinant active proteins from commercial sources, or extracted from animal tissues like bovine aorta, tendons, pig skin; or prepared from cell cultures. The inhibitory effects of the compounds of the present invention were tested against the given LOX-LOXL preparation using a high-throughput coupled colorimetric method (Holt A. and Palcic M., A peroxidase-coupled continuous absorbance plate-reader assay for flavin monoamine oxidases, copper-containing amine oxidases and related enzymes. Nat. Protoc. 2006; 1: 2498-2505). The assay was developed using either 384 or 96 well format. Briefly, in a standard 384 well plate assay 25 μL of a dilution of any of the isoenzymes and orthologues in 1.2 M urea, 50 mM sodium borate buffer (pH 8.2) were added into each well in the presence of 1 μM mofegiline and 0.5 mM pargyline (to inhibit SSAO and MAO-B and MAO-A, respectively). […]

Row | SMILES | IC50 [µM]
1 | Cc1c(-c2cccc(S(=O)(=O)N(C)C)c2)c2cc(C(=O)N(C)C)ccc2n1C/C(F)=C/CN | > 0.3
2 | Cc1c(-c2cccc(S(=O)(=O)N(C)C)c2)c2nc(C(=O)N(C)C)ccc2n1C/C(F)=C/CN | > 0.3
